ChEMBL document CHEMBL3044946, “Glyphosate resistance in perennial ryegrass (Lolium perenne L.) from Argentina” (2012)
Calls of active or inactive are those of the source. The rule behind the calls is not given here.

Tests used:
[1] = system: Lolium perenne; assay: Herbicidal activity against glyphosate-susceptible Lolium perenne (perennial ryegrass) assessed as inhibition of germination; type: functional
[2] = system: Lolium perenne; assay: Resistance index, ratio of LD50 for glyphosate-resistant Lolium perenne (perennial ryegrass) to LD50 for glyphosate-susceptible Lolium perenne (perennial ryegrass) by germination inhibition study; type: functional
[3] = system: Lolium perenne; assay: Herbicidal activity against glyphosate-susceptible Lolium perenne (perennial ryegrass) assessed as inhibition of plumule growth; type: functional
[4] = system: Lolium perenne; assay: Herbicidal activity against glyphosate-resistant Lolium perenne (perennial ryegrass) assessed as inhibition of germination; type: functional
[5] = system: Lolium perenne; assay: Herbicidal activity against glyphosate-resistant Lolium perenne (perennial ryegrass) assessed as plant-regrowth at 360 g ae/ha measured 30 days after compound application; type: functional
[6] = system: Lolium perenne; assay: Herbicidal activity against glyphosate-resistant Lolium perenne (perennial ryegrass) assessed as regrowth level of controlled plants at 2880 g ae/ha measured 30 days after compound application; type: functional
[7] = system: Lolium perenne; assay: Induction of shikimate accumulation in leaf sheath of glyphosate-susceptible Lolium perenne (perennial ryegrass) at 1440 g ae/ha measured 48 hr post compound application; type: functional, organism-based
[8] = system: Lolium perenne; assay: Herbicidal activity against glyphosate-resistant Lolium perenne (perennial ryegrass) assessed as regrowth level of controlled plants at 1440 g ae/ha measured 30 days after compound application; type: functional
[9] = system: Lolium perenne; assay: Resistance index, ratio of ED50 for glyphosate-resistant Lolium perenne (perennial ryegrass) to ED50 for glyphosate-susceptible Lolium perenne (perennial ryegrass) by plant survival inhibition study; type: functional
[10] = system: Lolium perenne; assay: Herbicidal activity against glyphosate-resistant Lolium perenne (perennial ryegrass) assessed as inhibition of plant survival measured after 15 days post compound application; type: functional
[11] = system: Lolium perenne; assay: Herbicidal activity against glyphosate-resistant Lolium perenne (perennial ryegrass) assessed as plant-regrowth at 720 g ae/ha measured 30 days after compound application; type: functional
[12] = system: Lolium perenne; assay: Induction of shikimate accumulation in leaf blade of glyphosate-resistant Lolium perenne (perennial ryegrass) at 1440 g ae/ha measured 24 to 72 hr post compound application; type: functional, organism-based
[13] = system: Lolium perenne; assay: Induction of shikimate accumulation in leaf sheath of glyphosate-resistant Lolium perenne (perennial ryegrass) at 1440 g ae/ha measured 24 to 72 hr post compound application; type: functional, organism-based
[14] = system: Lolium perenne; assay: Induction of shikimate accumulation in leaf blades of glyphosate-susceptible Lolium perenne (perennial ryegrass) at 1440 g ae/ha measured 48 hr post compound application; type: functional, organism-based
[15] = system: Lolium perenne; assay: Herbicidal activity against glyphosate-resistant Lolium perenne (perennial ryegrass) assessed as plant-regrowth at 2880 g ae/ha measured 30 days after compound application; type: functional
[16] = system: Lolium perenne; assay: Herbicidal activity against glyphosate-susceptible Lolium perenne (perennial ryegrass) assessed as inhibition of plant survival measured after 15 days post compound application; type: functional
[17] = system: Lolium perenne; assay: Induction of shikimate accumulation in leaf lamina of glyphosate-susceptible Lolium perenne (perennial ryegrass) at 1440 g ae/ha measured 24 hr post compound application; type: functional, organism-based
[18] = system: Lolium perenne; assay: Herbicidal activity against glyphosate-resistant Lolium perenne (perennial ryegrass) assessed as inhibition of plumule growth; type: functional
[19] = system: Lolium perenne; assay: Reduction in chlorophyll content in glyphosate-susceptible Lolium perenne (perennial ryegrass) at 1000 to 3000 g ae/ha measured after 7 to 10 days post compound application; type: functional, organism-based
[20] = system: Lolium perenne; assay: Herbicidal activity against glyphosate-resistant Lolium perenne (perennial ryegrass) assessed as plant-regrowth at 1440 g ae/ha measured 30 days after compound application; type: functional
[21] = system: Lolium perenne; assay: Herbicidal activity against glyphosate-resistant Lolium perenne (perennial ryegrass) assessed as regrowth level of controlled plants at 720 g ae/ha measured 30 days after compound application; type: functional
[22] = system: Lolium perenne; assay: Induction of shikimate accumulation in leaf lamina of glyphosate-susceptible Lolium perenne (perennial ryegrass) at 1440 g ae/ha measured 72 hr post compound application; type: functional, organism-based
[23] = system: Lolium perenne; assay: Herbicidal activity against glyphosate-resistant Lolium perenne (perennial ryegrass) assessed as regrowth level of controlled plants at 360 g ae/ha measured 30 days after compound application; type: functional
[24] = system: Lolium perenne; assay: Resistance index, ratio of GR50 for glyphosate-resistant Lolium perenne (perennial ryegrass) to GR50 for glyphosate-susceptible Lolium perenne (perennial ryegrass) by plumule growth inhibition study; type: functional
[25] = system: Lolium perenne; assay: Reduction in chlorophyll content in glyphosate-resistant Lolium perenne (perennial ryegrass) at 1000 to 3000 g ae/ha measured after 10 days post compound application; type: functional, organism-based

Compound: O=C(O)CNCP(=O)(O)O [GLYPHOSATE]
- LD50 [1]: 42 gAe/L
- Ratio [2]: 3.2
- GR50 [3]: 9.3 gAe/L
- LD50 [4]: 138 gAe/L
- Activity [5]: 6%
- Activity [6]: 33%
- Activity [7]: Active
- Activity [8]: 43%
- Ratio [9]: 10.8
- ED50 [10]: 1495 gAe/L
- Activity [11]: 17%
- Activity [12]: inactive
- Activity [13]: inactive
- Activity [14]: Active
- Activity [15]: 25%
- ED50 [16]: 138.1 gAe/L
- Activity [17]: Active
- GR50 [18]: 41.5 gAe/L
- Activity [19]: Active
- Activity [20]: 23%
- Activity [21]: 48%
- Activity [22]: Active
- Activity [23]: 37%
- Ratio [24]: 4.4
- Activity [25]: inactive
